# According to PubChem BioAssay (NCI):
#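 Cultured in 96-well plates, cells were exposed to test compound for 48 hours across five concentrations. TGI: total growth inhibition.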
# Assays:
# Test in all cases: NCI-60 cell line screen, 48 h
# 786-0 renal = tested on: 786-0 renal
# A498 renal = tested on: A498 renal
# A549 NSCLC = tested on: A549 NSCLC
# ACHN renal = tested on: ACHN renal
# BT-549 breast = tested on: BT-549 breast
# CAKI-1 renal = tested on: CAKI-1 renal
# CCRF-CEM leukemia = tested on: CCRF-CEM leukemia
# COLO 205 colon = tested on: COLO 205 colon
# DU-145 prostate = tested on: DU-145 prostate
# EKVX NSCLC = tested on: EKVX NSCLC
# HCC-2998 colon = tested on: HCC-2998 colon
# HCT-116 colon = tested on: HCT-116 colon
# HCT-15 colon = tested on: HCT-15 colon
# HL-60(TB) leukemia = tested on: HL-60(TB) leukemia
# HOP-62 NSCLC = tested on: HOP-62 NSCLC
# HOP-92 NSCLC = tested on: HOP-92 NSCLC
# HS 578T breast = tested on: HS 578T breast
# HT29 colon = tested on: HT29 colon
# IGROV1 ovarian = tested on: IGROV1 ovarian
# K-562 leukemia = tested on: K-562 leukemia
# KM12 colon = tested on: KM12 colon
# LOX IMVI melanoma = tested on: LOX IMVI melanoma
# M14 melanoma = tested on: M14 melanoma
# MCF7 breast = tested on: MCF7 breast
# MDA-MB-231 breast = tested on: MDA-MB-231 breast
# MDA-MB-435 = tested on: MDA-MB-435
# MDA-N = tested on: MDA-N
# MOLT-4 leukemia = tested on: MOLT-4 leukemia
# NCI-H226 lung = tested on: NCI-H226 lung
# NCI-H23 lung = tested on: NCI-H23 lung
# NCI-H460 lung = tested on: NCI-H460 lung
# NCI-H522 lung = tested on: NCI-H522 lung
# NCI/ADR-RES ovarian = tested on: NCI/ADR-RES ovarian
# OVCAR-3 ovarian = tested on: OVCAR-3 ovarian
# OVCAR-4 ovarian = tested on: OVCAR-4 ovarian
# OVCAR-5 ovarian = tested on: OVCAR-5 ovarian
# OVCAR-8 ovarian = tested on: OVCAR-8 ovarian
# PC-3 prostate = tested on: PC-3 prostate
# RPMI-8226 leukemia = tested on: RPMI-8226 leukemia
# SF-268 CNS = tested on: SF-268 CNS
# SF-295 CNS = tested on: SF-295 CNS
# SF-539 CNS = tested on: SF-539 CNS
# SK-MEL-2 melanoma = tested on: SK-MEL-2 melanoma
# SK-MEL-28 melanoma = tested on: SK-MEL-28 melanoma
# SK-MEL-5 melanoma = tested on: SK-MEL-5 melanoma
# SK-OV-3 ovarian = tested on: SK-OV-3 ovarian
# SN12C renal = tested on: SN12C renal
# SNB-19 CNS = tested on: SNB-19 CNS
# SNB-75 CNS = tested on: SNB-75 CNS
# SR leukemia = tested on: SR leukemia
# SW-620 colon = tested on: SW-620 colon
# T-47D breast = tested on: T-47D breast
# TK-10 renal = tested on: TK-10 renal
# U251 CNS = tested on: U251 CNS
# UACC-257 melanoma = tested on: UACC-257 melanoma
# UACC-62 melanoma = tested on: UACC-62 melanoma
# UO-31 renal = tested on: UO-31 renal
smiles,measurement,setting,value
O=c1cc(-c2ccc(O)cc2)oc2cc(O[C@@H]3O[C@H](CO)[C@@H](O)[C@H](O)[C@H]3O)cc(O)c12,TGI,786-0 renal,> 100 µM
same,TGI,A498 renal,> 100 µM
same,TGI,A549 NSCLC,> 100 µM
same,TGI,ACHN renal,> 100 µM
same,TGI,BT-549 breast,> 100 µM
same,TGI,CAKI-1 renal,0.718 µM
same,TGI,CCRF-CEM leukemia,> 100 µM
same,TGI,COLO 205 colon,> 100 µM
same,TGI,DU-145 prostate,> 100 µM
same,TGI,EKVX NSCLC,> 100 µM
same,TGI,HCC-2998 colon,> 100 µM
same,TGI,HCT-116 colon,> 100 µM
same,TGI,HCT-15 colon,> 100 µM
same,TGI,HL-60(TB) leukemia,> 100 µM
same,TGI,HOP-62 NSCLC,> 100 µM
same,TGI,HOP-92 NSCLC,> 100 µM
same,TGI,HS 578T breast,> 100 µM
same,TGI,HT29 colon,> 100 µM
same,TGI,IGROV1 ovarian,> 100 µM
same,TGI,K-562 leukemia,> 100 µM
same,TGI,KM12 colon,> 100 µM
same,TGI,LOX IMVI melanoma,> 100 µM
same,TGI,M14 melanoma,> 100 µM
same,TGI,MCF7 breast,> 100 µM
same,TGI,MDA-MB-231 breast,> 100 µM
same,TGI,MDA-MB-435,> 100 µM
same,TGI,MDA-N,> 100 µM
same,TGI,MOLT-4 leukemia,> 100 µM
same,TGI,NCI-H226 lung,> 100 µM
same,TGI,NCI-H23 lung,> 100 µM
same,TGI,NCI-H460 lung,> 100 µM
same,TGI,NCI-H522 lung,> 100 µM
same,TGI,NCI/ADR-RES ovarian,> 100 µM
same,TGI,OVCAR-3 ovarian,> 100 µM
same,TGI,OVCAR-4 ovarian,> 100 µM
same,TGI,OVCAR-5 ovarian,> 100 µM
same,TGI,OVCAR-8 ovarian,> 100 µM
same,TGI,PC-3 prostate,> 100 µM
same,TGI,RPMI-8226 leukemia,> 100 µM
same,TGI,SF-268 CNS,> 100 µM
same,TGI,SF-295 CNS,> 100 µM
same,TGI,SF-539 CNS,> 100 µM
same,TGI,SK-MEL-2 melanoma,> 100 µM
same,TGI,SK-MEL-28 melanoma,> 100 µM
same,TGI,SK-MEL-5 melanoma,> 100 µM
same,TGI,SK-OV-3 ovarian,> 100 µM
same,TGI,SN12C renal,> 100 µM
same,TGI,SNB-19 CNS,> 100 µM
same,TGI,SNB-75 CNS,> 100 µM
same,TGI,SR leukemia,> 100 µM
same,TGI,SW-620 colon,> 100 µM
same,TGI,T-47D breast,> 100 µM
same,TGI,TK-10 renal,> 100 µM
same,TGI,U251 CNS,> 100 µM
same,TGI,UACC-257 melanoma,> 100 µM
same,TGI,UACC-62 melanoma,> 100 µM
same,TGI,UO-31 renal,> 100 µM
